{"source": "ChEMBL document CHEMBL1127385", "about": "“Synthesis and diuretic activity of alkyl- and arylguanidine analogs of N,N'-dicyclohexyl-4-morpholinecarboxamidine in rats and dogs” (J Med Chem, 1994)", "settings_in_all_cases": "in vivo, po", "key": {"Rattus norvegicus [1]": {"system": "Rattus norvegicus", "assay": "Tested for the diuretic activity by measuring the urinary volume after peroral administering 348 uM/Kg of drug in rats", "type": "ADME, organism-based, Urine"}, "Rattus norvegicus [2]": {"system": "Rattus norvegicus", "assay": "Total electrolytic excretion of potassium in urine of rats after peroral administration of 34.8 uM/Kg of drug", "type": "ADME, organism-based"}, "Rattus norvegicus [3]": {"system": "Rattus norvegicus", "assay": "Total electrolytic excretion of sodium in urine of rats after peroral administration of 34.8 uM/Kg of drug", "type": "ADME, organism-based"}, "Rattus norvegicus [4]": {"system": "Rattus norvegicus", "assay": "Total electrolytic excretion of chlorine in urine of rats after peroral administration of 105 uM/Kg of drug", "type": "ADME, organism-based"}, "Rattus norvegicus [5]": {"system": "Rattus norvegicus", "assay": "Ratio of Total electrolytic excretion of sodium and potassium in urine of rats after peroral administration of 348 uM/Kg of drug", "type": "ADME, organism-based"}, "Rattus norvegicus [6]": {"system": "Rattus norvegicus", "assay": "Total electrolytic excretion of sodium in urine of rats after peroral administration of 348 uM/Kg of drug", "type": "ADME, organism-based"}, "Rattus norvegicus [7]": {"system": "Rattus norvegicus", "assay": "Total electrolytic excretion of potassium in urine of rats after peroral administration of 105 uM/Kg of drug", "type": "ADME, organism-based"}, "Rattus norvegicus [8]": {"system": "Rattus norvegicus", "assay": "Total electrolytic excretion of chlorine in urine of rats after peroral administration of 34.8 uM/Kg of drug", "type": "ADME, organism-based"}, "Rattus norvegicus [9]": {"system": "Rattus norvegicus", "assay": "Ratio of Total electrolytic excretion of sodium and potassium in urine of rats after peroral administration of 105 uM/Kg of drug", "type": "ADME, organism-based"}, "Rattus norvegicus [10]": {"system": "Rattus norvegicus", "assay": "Total electrolytic excretion of sodium in urine of rats after peroral administration of 105 uM/Kg of drug", "type": "ADME, organism-based"}, "Rattus norvegicus [11]": {"system": "Rattus norvegicus", "assay": "Ratio of Total electrolytic excretion of sodium and potassium in urine of rats after peroral administration of 34.8 uM/Kg of drug", "type": "ADME, organism-based"}, "Rattus norvegicus [12]": {"system": "Rattus norvegicus", "assay": "Tested for the diuretic activity by measuring the urinary volume after peroral administering 105 uM/Kg of drug in rats", "type": "ADME, organism-based, Urine"}, "Rattus norvegicus [13]": {"system": "Rattus norvegicus", "assay": "Total electrolytic excretion of chlorine in urine of rats after peroral administration of 348 uM/Kg of drug", "type": "ADME, organism-based"}, "Rattus norvegicus [14]": {"system": "Rattus norvegicus", "assay": "Total electrolytic excretion of potassium in urine of rats after peroral administration of 348 uM/Kg of drug", "type": "ADME, organism-based"}, "Rattus norvegicus [15]": {"system": "Rattus norvegicus", "assay": "Tested for the diuretic activity by measuring the urinary volume after peroral administering 34.8 uM/Kg of drug in rats", "type": "ADME, organism-based, Urine"}}, "data": [{"compound": "c1ccc(N/C(=N/C2CCCCC2)N2CCOCC2)cc1", "values": [{"measurement": "V", "setting": "Rattus norvegicus [1]", "result": 9, "unit": "mL"}, {"measurement": "Excretion K+", "setting": "Rattus norvegicus [2]", "result": 0.27, "unit": "m equiv"}, {"measurement": "Excretion Na+", "setting": "Rattus norvegicus [3]", "result": 0.93, "unit": "m equiv"}, {"measurement": "Excretion Cl-", "setting": "Rattus norvegicus [4]", "result": 1.12, "unit": "m equiv"}, {"measurement": "Ratio", "setting": "Rattus norvegicus [5]", "result": 3.4}, {"measurement": "Excretion Na+", "setting": "Rattus norvegicus [6]", "result": 1.37, "unit": "m equiv"}, {"measurement": "Excretion K+", "setting": "Rattus norvegicus [7]", "result": 0.37, "unit": "m equiv"}, {"measurement": "Excretion Cl-", "setting": "Rattus norvegicus [8]", "result": 1.04, "unit": "m equiv"}, {"measurement": "Ratio", "setting": "Rattus norvegicus [9]", "result": 2.8}, {"measurement": "Excretion Na+", "setting": "Rattus norvegicus [10]", "result": 1.02, "unit": "m equiv"}, {"measurement": "Ratio", "setting": "Rattus norvegicus [11]", "result": 3.4}, {"measurement": "V", "setting": "Rattus norvegicus [12]", "result": 7.3, "unit": "mL"}, {"measurement": "Excretion Cl-", "setting": "Rattus norvegicus [13]", "result": 1.39, "unit": "m equiv"}, {"measurement": "Excretion K+", "setting": "Rattus norvegicus [14]", "result": 0.4, "unit": "m equiv"}, {"measurement": "V", "setting": "Rattus norvegicus [15]", "result": 5.6, "unit": "mL"}]}]}
